Where “and” joins values, the source holds several entries; their conditions need not be identical. Equal values may be shown once. Where a name gives a salt, the structure may show the parent alone. Read-outs that look alike come from different tables or passages of the source.
Tests used:
HEK293 cells = assay: Cytotoxicity in HEK293 cells (CCK-8, 24 h); type: cell-based; settings: for HEK293 cytotoxicity at 100 μM ("100 μM result in x%"): NT=not toxic
Procedure: (§1) H9c2 (ATCC®R-1446™) cells Were used in the studies. The H9c2 cells were maintained in DMEM (Dulbeccoa's Modified Eagle's Medium) supplemented with 10% fetal bovine serum (Mid Sci; S01520HI) and 1% penicillin-streptomycin (Sigma-Aldrich; P4333) at 37° C. with 5% CO2. The H9c2 cells were seeded in 96-well plate one day before the experiment. Different concentrations of di-amidine compounds were added into the H9c2 cells. The cells were then incubated with the compounds for 24 h at 37° C. with 5% CO2. The cell viability was tested by the CCK-8. Specifically, after 24 h incubation, 10 μL CCK-8 was added to each well. After 3 h incubation at 37° C., the absorbance at 450 nm was recorded by a plate reader. The cytoxicity in HEK293 and 3T3 cells was measured using the same procedure. Data is shown in Table 5 (NT=not toxic; --=not tested).

3T3 cells = assay: Cytotoxicity in 3T3 cells (CCK-8, 24 h); type: cell-based; settings: for 3T3 cytotoxicity at 100 μM ("100 μM result in x%"): NT=not toxic
Procedure: as §1

E. coli = assay: Sensitization of E. coli to erythromycin (sensitization fold from IC90, OD600, 20 h); type: cell-based, Escherichia coli; settings: general statement on amidine substitution or ring restraint
Procedure: E. coli bacteria were cultured in Miller's broth at 37° C. overnight prior to treatment. B. subtilis bacteria were cultured in nutrient broth at 37° C. overnight prior to treatment. […] Bacterial density was measured based on OD600.

B. subtilis = B. subtilis viability with antibiotic in absence or presence of compound (OD600, 20 h); type: cell-based, Bacillus subtilis; settings: M-1 12.5 or 6 μM; A-2 6 or 12.5 μM; A-8; 20 h
Procedure: Bacterial viability was then determined by measuring density using OD600. […] B. subtilis was also cultured with either novobiocin or tetracycline at varying concentrations either in the absence or presence of compound M-1 (12.5 μM) for 20 hours. Bacterial viability was subsequently determined by measuring density using OD600.
Bacterial viability was then determined by measuring density using OD600.

wild type B. subtilis [1] = assay: Sensitization of B. subtilis toward antibiotics (MIC, OD600, 24 h); type: cell-based, Bacillus subtilis; settings: for MIC of antibiotic on B. subtilis in the presence of Compound M-1: 5.5 μg/ml Compound M-1; for Sensitization effect on B. subtilis: compound at 10 μg/ml
Procedure: FIG. 22A is a bar graph showing that Compound M-1 sensitizes B. subtilis towards rifampicin as described in Example 13. Bacteria was cultured with rifampicin at various concentrations in the presence or absence of Compound M-1 for 24 hours at 37° C. and bacterial growth density was determined by measuring OD600. The y-axis is growth density measured in percent. The x-axis is rifampicin concentration measured in micrograms per milliliter (***: p<0.01).
Compound M-1 can sensitize Gram-positive bacteria such as B. subtilis towards traditional antibiotics. […] The sensitization fold is 32-fold for Compound M-1 and the FIC index is 0.14.

wild type B. subtilis [2] = assay: as above; type: cell-based, Bacillus subtilis
wild-type E. coli = assay: Sensitization of wild-type E. coli toward antibiotics (MIC of antibiotic with/without sensitizer); type: cell-based, Escherichia coli; settings: for MIC: Escherichia coli; for FIC: fractional inhibitory concentration, antibiotic plus Compound C 5 μg/ml
Procedure: Bacteria were cultured with the antibiotic at various concentrations in the presence or absence of bacterial sensitizer for 24 hours at 37° C. Bacterial growth density was determined by measuring OD600 (absorbance measured at a wavelength of 600 nm). […]
The formula for calculating FIC is shown below: […]

H9c2 cells = assay: Cytotoxicity in H9c2 cells (CCK-8, 24 h); type: cell-based
Procedure: as §1

[3] = system: NDM-1 over-expressing E. coli; assay: microbe, parasite or virus in culture; type: cell-based, Escherichia coli; settings: for Sensitization fold: MIC of antibiotic only / MIC with Compound C 5 μg/ml; for FIC / MIC of AB with Compound C (5 μg/ml): antibiotic plus Compound C 5 μg/ml
MRSA = assay: Sensitization of MRSA toward antibiotics (OD600, 24 h); type: cell-based, Staphylococcus aureus; settings: for Sensitization fold, MRSA towards rifampicin: compound at 10 μg/ml
Procedure: Bacteria was cultured with rifampicin at various concentrations in the presence or absence of Compound M-1 for 24 hours at 37° C. and bacterial growth density was determined by measuring OD600. The y-axis is growth density measured in percent. The x-axis is rifampicin concentration measured in micrograms per milliliter (***: p<0.01).
Compound M-1 (2.7 μg/ml) sensitizes MRSA towards existing antibiotics such as rifampicin (32-fold) (FIG. 22B) and trovafloxacin (16-fold). Rifampicin is the first line of defense against MRSA and many MRSA stains grow resistance to rifampicin through overexpression of efflux pump and other mechanisms. Combined with Compound M-1, rifampicin can be used more effectively against MRSA.

E. coli and MRSA = assay: Relative ratio of E. coli and MRSA under trovafloxacin with/without Compound A-8; type: cell-based, Escherichia coli; Staphylococcus aureus; settings: trovafloxacin (16 ng/ml) alone
Description: FIG. 23A is a comparison of the relative ratio of E. coli and MRSA treated with the antibiotic trovafloxacin in the absence (pie chart on the left) and in the presence (pie chart on the right) of Compound A-8 as described in Example 14. In the absence of Compound A-8, trovafloxacin preferred to inhibit E. coli and the bacterial population was 78% MRSA. However, Compound A-8 sensitizes trovafloxacin to MRSA.
As a proof of concept, the relative ratio of E. coli and MRSA (FIG. 23A) or B. subtilis and MRSA (FIG. 23 B) was measured with and without Compound A-8. […] However, when trovafloxacin (8 ng/ml) is supplied with 1.5 μg/ml of Compound A-8, MRSA inhibition was achieved and E. coli was the dominant species (89% of the bacteria population).

[4] = antibiotic alone, wild-type E. coli, read-out: MIC of AB only
[5] = read-out: MIC of AB with Compound C (5 μg/ml), antibiotic plus Compound C 5 μg/ml, wild-type E. coli
[6] = 24 h, antibiotic alone, wild-type E. coli, read-out: MIC of AB only

Cc1cc(CCc2ccc(C(=N)N)cc2)cc(CCc2ccc(C(=N)N)cc2)c1 [drawing 876]
HEK293 CC^50 (HEK293 cells): 50 µM
3T3 CC^50 (3T3 cells): 50 µM

Cc1cc(COc2ccc(C3=NCCN3)cc2)cc(COc2ccc(C3=NCCN3)cc2)c1 [Compound A-2, 2,2′-((((5-Methyl-1,3-phenylene)bis(methylene))bis(oxy))bis(4,1-phenylene))bis(4,5-dihydro-1H-imidazole) Dihydrochloride]
Ability to sensitize Gram-negative bacteria (while preserving ability to sensitize some Gram-positive bacteria) (E. coli): greatly decrease, or even abolish
B. subtilis growth inhibition, compound in combination with erythromycin vs erythromycin alone (B. subtilis): significant bacterial growth inhibition

CC[C@H]1OC(=O)[C@H](C)[C@@H](O[C@H]2C[C@@](C)(OC)[C@@H](O)[C@H](C)O2)[C@H](C)[C@@H](O[C@@H]2O[C@H](C)C[C@H](N(C)C)[C@H]2O)[C@](C)(O)C[C@@H](C)C(=O)[C@H](C)[C@@H](O)[C@]1(C)O [Erythromycin, erythromycin]
MIC of antibiotic on B. subtilis in the presence of Compound M-1 (wild type B. subtilis [1]): 1.5 mg/L
MIC of antibiotic on B. subtilis in the absence of Compound M-1 (wild type B. subtilis [2]; antibiotic alone): 50 mg/L
MIC (wild-type E. coli; [4]): 50 mg/L
MIC (wild-type E. coli; [5]): 0.4 mg/L
FIC (wild-type E. coli; wild-type E. coli): 0.11

COc1cc(C(=N)N)ccc1OCc1cc(C)cc(COc2ccc(C(=N)N)cc2OC)c1 [drawing 871]
HEK293 cytotoxicity at 100 μM ("100 μM result in x%") (HEK293 cells): 100 μM result in 10%

Cc1cc(OCc2ccc(C(=N)N)cc2)cc(OCc2ccc(C(=N)N)cc2)c1 [drawing 877]
3T3 cytotoxicity at 100 μM ("100 μM result in x%") (3T3 cells): 100 UM result in 10%

N=C(N)c1ccc(OCc2cccc(COc3ccc(C(=N)N)cc3F)c2F)c(F)c1 [drawing 854]
H9c2 CC^50 (H9c2 cells): 50 µM
HEK293 CC^50 (HEK293 cells): 100 µM
3T3 cytotoxicity at 100 μM ("100 μM result in x%") (3T3 cells): 100 μM result in 30%

CO[C@H]1/C=C/O[C@@]2(C)Oc3c(C)c(O)c4c(O)c(c(/C=N/N5CCN(C)CC5)c(O)c4c3C2=O)NC(=O)/C(C)=C\C=C\[C@H](C)[C@H](O)[C@@H](C)[C@@H](O)[C@@H](C)[C@H](OC(C)=O)[C@@H]1C [Rifampicin, rifampicin]
MIC of antibiotic on B. subtilis in the presence of Compound M-1 (wild type B. subtilis [1]): 0.037 mg/L
Sensitization fold [3]: 516
FIC [3]: 0.11
MIC of AB with Compound C (5 μg/ml) [3]: 0.019 mg/L
MIC (wild-type E. coli; [6]): 10 mg/L
MIC (wild-type E. coli; [4]): 10 mg/L
MIC (wild-type E. coli; [5]): 0.02 mg/L
Sensitization fold (wild-type E. coli; MIC of antibiotic only / MIC of antibiotic with Compound C 5 μg/ml, wild-type E. coli): 516 and 512
FIC (wild-type E. coli; wild-type E. coli): 0.11 and 0.10

N=C(N)c1ccc(OCc2ccc(COc3ccc(C(=N)N)cc3)cc2)cc1 [drawing 869]
H9c2 CC^50 (H9c2 cells): 50 µM
HEK293 cytotoxicity at 100 μM ("100 μM result in x%") (HEK293 cells): 100 μM result in 30%
3T3 cytotoxicity at 100 μM ("100 μM result in x%") (3T3 cells): 100 result in 10%

CCCNC(=N)c1ccc(COc2cc(C)cc(OCc3ccc(C(=N)NCCC)cc3)c2)cc1 [Compound E-13, 1,3-Bis {(4-n-propylamidino)-benzyloxy}-5-methylbenzene dihydrochloride]
Sensitization fold, MRSA towards rifampicin (MRSA): 16 fold
Sensitization effect on B. subtilis (wild type B. subtilis [1]): no effect
Ability to sensitize Gram-negative bacteria (while preserving ability to sensitize some Gram-positive bacteria) (E. coli): greatly decrease, or even abolish

Cc1cc(COc2ccc(CN)cc2)cc(COc2ccc(CN)cc2)c1 [drawing 874]
HEK293 CC^50 (HEK293 cells): 25 µM
3T3 CC^50 (3T3 cells): 25 µM

Cc1cc(COc2ccc(C3=NCCCN3)cc2)cc(COc2ccc(C3=NCCCN3)cc2)c1 [Compound B-21, 2,2′-((((5-Methyl-1,3-phenylene)bis(methylene))bis(oxy))bis(4,1-phenylene))bis(1,4,5,6-tetrahydropyrimidine) dihydrochloride]
Sensitization fold, MRSA towards rifampicin (MRSA): 16 fold
Sensitization effect on B. subtilis (wild type B. subtilis [1]): no effect
Ability to sensitize Gram-negative bacteria (while preserving ability to sensitize some Gram-positive bacteria) (E. coli): greatly decrease, or even abolish

Cc1cc(COc2ccc(CN)cc2)cc(COc2ccc(CN)cc2)c1 [Compound E-11, 1,3-Bis {(4-methanamine)-phenoxymethyl}-5-methylbenzene dihydrochloride]
Sensitization effect on MRSA (MRSA; compound at 5 μg/ml): no effect
Sensitization fold, B. subtilis towards erythromycin (wild type B. subtilis [2]; compound at 5 μg/ml): 32 fold

Cc1cc(COc2ccc(C3=NCCN3)cc2)cc(COc2ccc(C3=NCCN3)cc2)c1 [drawing 864]
H9c2 CC^50 (H9c2 cells): 25 µM
3T3 CC^50 (3T3 cells): 25 µM

N[C@@H]1[C@H]2CN(c3nc4c(cc3F)c(=O)c(C(=O)O)cn4-c3ccc(F)cc3F)C[C@@H]12 [Trovafloxacin, trovafloxacin]
MRSA share of the bacteria population (E. coli + MRSA) (E. coli and MRSA): 78%
MIC ([3]; Escherichia coli, antibiotic alone, read-out: MIC of AB only): 0.025 mg/L
Sensitization fold [3]: 32
FIC [3]: 0.13
MIC of AB with Compound C (5 μg/ml) [3]: 0.0008 mg/L
MIC (wild-type E. coli; [6]): 0.05 mg/L
MIC (wild-type E. coli; [4]): 0.05 mg/L
MIC (wild-type E. coli; [5]): 0.0015 mg/L
FIC (wild-type E. coli; wild-type E. coli): 0.13

Cc1cc(COc2cccc(C(=N)N)c2)cc(COc2cccc(C(=N)N)c2)c1 [drawing 884]
HEK293 cytotoxicity at 100 μM ("100 μM result in x%") (HEK293 cells): 100 μM result in 20%

COc1cc(C(=N)N)ccc1OCc1cc(COc2ccc(C(=N)N)cc2OC)cc(C(C)(C)C)c1 [drawing 882]
HEK293 cytotoxicity at 100 μM ("100 μM result in x%") (HEK293 cells): 100 μM result in 20%

N=C(N)c1ccc(OCc2cc(COc3ccc(C(=N)N)cc3)cc(COc3ccc(C(=N)N)cc3)c2)cc1 [drawing 875]
HEK293 cytotoxicity at 100 μM ("100 μM result in x%") (HEK293 cells): 100 μM result in 10%

Cc1cc(COc2ccc(C(=N)N)cc2)cc(COc2ccc(C(=N)N)cc2)c1 [drawing 863]
H9c2 CC^50 (H9c2 cells): 50 µM
HEK293 cytotoxicity at 100 μM ("100 μM result in x%") (HEK293 cells): 100 μM result in 20%
3T3 cytotoxicity at 100 μM ("100 μM result in x%") (3T3 cells): 100 μM result in 20%
